This note sets out measurements from ChEMBL document CHEMBL1148949, “(2S,3R)-2-aminododecan-3-ol, a new antifungal agent from the ascidian Clavelina oblonga” (2004).

In brackets after ≈: the same amount, converted by molar mass.

The subject of assay [1] is Candida albicans. The experiment in a line: Antifungal activity against Candida albicans ATCC 10231. The format is functional.
The test system of assay [2] is Nakaseomyces glabratus. The experiment in a line: Antifungal activity against Candida glabrata. The format is functional.

By MIC is commonly meant the lowest concentration that inhibits growth of the organism.

`CCCCCCCCC[C@@H](O)[C@H](C)N`: the figures for the MIC in assay [1] and in assay [2] were 0.7 µg/mL (≈ 3.48 µM) and 30 µg/mL (≈ 149 µM), respectively.
In the case of `CC(=O)N1CCN(c2ccc(OCC3COC(Cn4ccnc4)(c4ccc(Cl)cc4Cl)O3)cc2)CC1` (centres undefined) [KETOCONAZOLE], the MIC in assay [1] was 0.01 µg/mL (≈ 0.0188 µM).
Still for that read-out and setting: the result for NYSTATIN reads 1 µg/mL.
